The compounds below were run against T1, human recombinant mGluR5 (Homo sapiens, UniProt P41594) (assay: positive modulation of mGluR5, calcium based FLIPR assay). Details: EC50 of the modulation; HEK 293 cell line expressing human recombinant mGluR5; peak height of Ca fluorescence signal after glutamate at approx. 5% basal stimulation; read-out: EC50.
T1 construct: expressed in transfected cells; host or cells: HEK 293 cell line, cultured with tetracycline, hygromycin and geneticin; tetracycline is withdrawn 3-7 days before the assay
Format: cell-based
Experimental: The positive modulation of mGluR5 is measured in a HEK 293 cell line expressing human recombinant mGluR5 and is detected with calcium based FLIPR assay. The cells are cultured with DMEM supplemented with 10% FCS, 2 μg/mL tetracycline, 100 μg/mL hygromycin and 500 μg/mL gneticin. The cell culture media is exchanged for tetracycline-free cell culture media 3-7 days before the assay. One day before the assay the cell culture medium is exchanged to DMEM without glutamine and phenol red and supplemented with 10% FCS, 100 μg/mL hygromycin and 500 μg/mL geneticin. On the assay day, the medium of the subconfluent cultures is removed and the cells are detached by addition of 2.5 ml EDTA (0.02%) per 175 cm2 culture flask for 1 minute. The cells are resuspend in Ringer solution (140 mM NaCl, 5 mM KCl, 2.5 mM CaCl2, 1.5 mM MgCl2, 5 mM Glucose, 10 mM Hepes; adjusted to pH 7.4 with NaOH), pooled and Ringer solution added to adjust the volume to 50 mL. The cell suspension is centrifuged for 5 min at 1500 U/min (425 g). The supernatant is removed and the cells washed a second time with 50 ml fresh Ringer solution and centrifuged again as before. The supernatant is again removed and the pellet resuspended in Ringer solution to 1,000,000 cells/ml (1×10^6 cells/mL). The cells are plated onto BD BioCoat Poly-D-Lysine 384 well plates (20.000 cells/well; 20 μl/well). The lid covered plates are then incubated until use at 37° C./10% CO2. For dye loading, 20 μl of Calcium-4 assay kit solution (prepared according to the manufacturer's description in Ringer solution) are added to the cells and the plates are incubated for 80 min 37° C. and then 10 min at room temperature. • Controls, Compound dilution and assay execution: • Each assay plate contained wells with “high” and “low” controls:
Low controls 1% DMSO/ringer solution+basal glutamate activation (defined as 100% CTL).
High controls 10 μM CDPPB+basal glutamate activation (defined as 200% CTL).
Test compounds are dissolved and diluted in DMSO to 100-fold the desired concentrations. In a second step, the compounds are diluted in Ringer solution such that the compounds are 4-fold more concentrated than the desired final assay concentration. The final DMSO concentration was 1%.
20 μl of each compound solution are then transferred to the assay plate and the Ca2+ kinetic is measured to determine any intrinsic compound activity. After 5 min incubation in the FLIPR device, the second stimulation with 20 μl of glutamate in Ringer solution (glutamate concentration adjusted to approximately 5% basal stimulation of the maximal possible glutamate effect) is added and the kinetic Ca2+ response of the wells was measured for the modulation effect.
The peak height of the Ca release related fluorescence signal (9-66) is used for the EC50. The EC50 of the modulation is calculated over a nonlinear regression with GraphPad Prism (Table 1).

T1 sequence (P41594 21-1212): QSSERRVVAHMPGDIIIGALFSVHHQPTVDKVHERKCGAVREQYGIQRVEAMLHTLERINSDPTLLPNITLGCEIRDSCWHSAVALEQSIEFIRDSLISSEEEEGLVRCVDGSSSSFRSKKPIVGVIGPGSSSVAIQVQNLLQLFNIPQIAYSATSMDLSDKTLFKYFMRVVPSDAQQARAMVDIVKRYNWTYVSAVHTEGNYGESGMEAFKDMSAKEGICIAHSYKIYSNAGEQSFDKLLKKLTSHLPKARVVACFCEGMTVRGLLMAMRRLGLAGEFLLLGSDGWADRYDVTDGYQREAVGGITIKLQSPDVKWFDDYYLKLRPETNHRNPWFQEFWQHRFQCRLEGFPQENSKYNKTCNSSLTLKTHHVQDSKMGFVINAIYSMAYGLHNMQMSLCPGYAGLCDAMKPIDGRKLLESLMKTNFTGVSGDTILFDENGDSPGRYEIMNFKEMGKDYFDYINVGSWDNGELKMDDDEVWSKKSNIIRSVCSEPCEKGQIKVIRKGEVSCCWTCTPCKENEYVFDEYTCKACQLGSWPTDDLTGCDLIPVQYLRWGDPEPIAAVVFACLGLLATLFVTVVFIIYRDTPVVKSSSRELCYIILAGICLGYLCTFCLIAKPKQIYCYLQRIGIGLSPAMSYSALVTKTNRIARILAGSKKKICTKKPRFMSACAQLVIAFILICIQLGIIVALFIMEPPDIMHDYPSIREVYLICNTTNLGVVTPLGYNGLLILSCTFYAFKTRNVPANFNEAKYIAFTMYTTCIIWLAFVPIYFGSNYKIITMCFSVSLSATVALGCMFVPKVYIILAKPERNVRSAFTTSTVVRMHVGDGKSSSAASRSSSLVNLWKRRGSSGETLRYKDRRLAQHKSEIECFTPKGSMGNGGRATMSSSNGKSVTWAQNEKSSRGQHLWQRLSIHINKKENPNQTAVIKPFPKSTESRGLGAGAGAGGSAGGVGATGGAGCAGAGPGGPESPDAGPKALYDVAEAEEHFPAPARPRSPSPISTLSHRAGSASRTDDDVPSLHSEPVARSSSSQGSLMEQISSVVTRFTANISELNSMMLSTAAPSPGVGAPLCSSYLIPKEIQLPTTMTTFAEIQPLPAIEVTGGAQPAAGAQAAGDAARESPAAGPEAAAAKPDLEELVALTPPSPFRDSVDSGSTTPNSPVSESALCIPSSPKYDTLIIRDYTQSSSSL

| SMILES | EC50 |
| --- | --- |
| O=C(Cn1nc(-c2ccc(F)cc2)nc1-c1ccc(F)cc1)N1Cc2cccnc2C1 [Example 7.03.020.] | 626 nM |
| COc1cccc(C2=CCN(C(=O)Cn3nc(-c4ccc(F)cc4)nc3-c3ccc(F)cc3)CC2)c1 [Example 7.03.021.] | 228 nM |
| O=C(Cn1nc(-c2ccc(F)cc2)nc1-c1ccc(F)cc1)N1CC=C(c2ncccn2)CC1 [Example 7.03.022.] | 56 nM |
| COc1ccc2c(n1)CCN(C(=O)Cn1nc(-c3ccc(F)cc3)nc1-c1ccc(F)cc1)CC2 [Example 7.03.023.] | 186 nM |
| O=C(Cn1nc(-c2ccc(F)cc2)nc1-c1ccc(F)cc1)N1CC=C(c2ccccn2)CC1 [Example 7.03.024.] | 107 nM |
| COc1cc(C2=CCN(C(=O)Cn3nc(-c4ccc(F)cc4)nc3-c3ccc(F)cc3)CC2)ncn1 [Example 7.03.025.] | 97 nM |
| COc1cc(C2CCN(C(=O)Cn3nc(-c4ccc(F)cc4)nc3-c3ccc(F)cc3)CC2)ncn1 [Example 7.03.026.] | 987 nM |
| O=C(Cn1nc(-c2ccc(F)cc2)nc1-c1ccc(F)cc1)N1CCC(c2ccccn2)CC1 [Example 7.03.027.] | 739 nM |
| O=C(Cn1nc(-c2ccc(F)cc2)nc1-c1ccc(F)cc1)N1CCc2ccc(Cl)nc2CC1 [Example 7.03.028.] | 117 nM |
| CCc1nc2c(s1)CCN(C(=O)Cn1nc(-c3ccc(F)cc3)nc1-c1ccc(F)cc1)CC2 [Example 7.03.030.] | 37 nM |
| O=C(Cn1nc(-c2ccc(F)cc2)nc1-c1ccc(F)cc1)N1CCc2nc(C3CCOCC3)sc2CC1 [Example 7.03.031.] | 1780 nM |
| O=C(Cn1nc(-c2ccc(F)cc2)nc1-c1ccc(F)cc1)N1CCc2nc(C3CCCCC3)sc2CC1 [Example 7.03.032.] | 868 nM |
| CC(C)c1nnc(C2CCN(C(=O)Cn3nc(-c4ccc(F)cc4)nc3-c3ccc(F)cc3)CC2)o1 [Example 7.03.033.] | 474 nM |
| O=C(Cn1nc(-c2ccc(F)cc2)nc1-c1ccc(F)cc1)N1CCC(c2nnco2)CC1 [Example 7.03.034.] | 907 nM |
| Cc1cnc(C2CCN(C(=O)Cn3nc(-c4ccc(F)cc4)nc3-c3ccc(F)cc3)CC2)o1 [Example 7.03.035.] | 170 nM |
| Cc1cnc(C2=CCN(C(=O)Cn3nc(-c4ccc(F)cc4)nc3-c3ccc(F)cc3)CC2)o1 [Example 7.03.036.] | 49 nM |
| Cc1nc2c(s1)C(C)CN(C(=O)Cn1nc(-c3ccc(F)cc3)nc1-c1ccc(F)cc1)CC2 (stereo not drawn) [Example 7.03.037.] | 312 nM |
| O=C(Cn1nc(-c2ccc(F)cc2)nc1-c1ccc(F)cc1)N1CCC(c2ncco2)CC1 [Example 7.03.038.] | 75 nM |
| COc1nc2c(s1)CCN(C(=O)Cn1nc(-c3ccc(F)cc3)nc1-c1ccc(F)cc1)CC2 [Example 7.03.039.] | 50 nM |

| SMILES | EC50 |
| --- | --- |
| O=C(Cn1nc(-c2ccc(F)cc2)nc1-c1ccc(F)cc1)N1CC=C(c2ncco2)CC1 [Example 7.03.040.] | 54 nM |
| COc1cccc(N2CCN(C(=O)Cn3nc(-c4ccc(F)cc4)nc3-c3ccc(F)cc3)CC2=O)n1 [Example 7.03.041.] | 161 nM |
| O=C(Cn1nc(-c2ccc(F)cc2)nc1-c1ccc(F)cc1)N1CCN(C2=NCCO2)CC1 [Example 7.03.042.] | 885 nM |
| CC(C)c1nnc(N2CCN(C(=O)Cn3nc(-c4ccc(F)cc4)nc3-c3ccc(F)cc3)CC2)o1 [Example 7.03.043.] | 139 nM |
| CCc1nnc(N2CCN(C(=O)Cn3nc(-c4ccc(F)cc4)nc3-c3ccc(F)cc3)CC2)o1 [Example 7.03.044.] | 96 nM |
| Cc1nnc(N2CCN(C(=O)Cn3nc(-c4ccc(F)cc4)nc3-c3ccc(F)cc3)CC2)o1 [Example 7.03.045.] | 155 nM |
| O=C(Cn1nc(-c2ccc(F)cc2)nc1-c1ccc(F)cc1)N1CCN(C2=NCCS2)CC1 [Example 7.03.046.] | 356 nM |
| O=C(Cn1nc(-c2ccc(F)cc2)nc1-c1ccc(F)cc1)N1CCN(c2nc3ccccc3o2)CC1 [Example 7.03.047.] | 140 nM |
| O=C(Cn1nc(-c2ccc(F)cc2)nc1-c1ccc(F)cc1)N1CCN(c2nccs2)CC1 [Example 7.03.048.] | 88 nM |
| Nc1nc2c(s1)CCN(C(=O)Cn1nc(-c3ccccc3)nc1-c1ccccc1)CC2 [Example 7.03.049.] | 1440 nM |
| COc1ccc(-c2nc(-c3ccccc3)n(CC(=O)N3Cc4nc(C)sc4C3)n2)cc1 [Example 7.03.050.] | 338 nM |
| COc1ccc(-c2nc(-c3ccccc3)n(CC(=O)N3CCc4nc(N)sc4CC3)n2)cc1 [Example 7.03.051.] | 282 nM |
| COc1ccc(-c2nc(-c3ccccc3)n(CC(=O)N3CCc4nc(C)oc4C3)n2)cc1 [Example 7.03.052.] | 323 nM |
| COc1ccc(-c2nc(-c3ccccc3)n(CC(=O)N3CCN(c4ccccn4)C(=O)C3)n2)cc1 [Example 7.03.053.] | 242 nM |
| COc1ccc(-c2nc(-c3ccccc3)n(CC(=O)N3CCc4nc(C)sc4CC3)n2)cc1 [Example 7.03.054.] | 97 nM |
| COc1ccc(-c2nc(-c3ccc(F)cc3)n(CC(=O)N3CCc4nc(N)sc4CC3)n2)cc1 [Example 7.03.055.] | 100 nM |
| COc1ccc(-c2nc(-c3ccc(F)cc3)n(CC(=O)N3CCc4nc(C)sc4CC3)n2)cc1 [Example 7.03.056.] | 63 nM |
| COc1ccc(-c2nc(-c3ccc(F)cc3)nn2CC(=O)N2CCc3nc(N)sc3CC2)cc1 [Example 7.03.057.] | 187 nM |
| COc1ccc(-c2nc(-c3ccc(F)cc3)nn2CC(=O)N2CCc3nc(C)sc3CC2)cc1 [Example 7.03.058.] | 117 nM |

| SMILES | EC50 |
| --- | --- |
| Cc1nc2c(o1)CN(C(=O)Cn1nc(-c3ccc(F)c(C)c3)nc1C1CCCCC1)CC2 [Example 7.03.059.] | 540 nM |
| Cc1nc2c(s1)CN(C(=O)Cn1nc(-c3ccc(F)c(C)c3)nc1C1CCCCC1)C2 [Example 7.03.060.] | 255 nM |
| Cc1cc(-c2nc(C3CCCCC3)n(CC(=O)N3CCc4nc(N)sc4CC3)n2)ccc1F [Example 7.03.061.] | 369 nM |
| Cc1nc2c(s1)CCN(C(=O)Cn1nc(-c3ccc(F)c(C)c3)nc1C1CCCCC1)CC2 [Example 7.03.062.] | 155 nM |
| Cc1nc2c(s1)CCN(C(=O)Cn1nc(-c3ccc(F)c(C)c3)nc1-c1ccccc1)CC2 [Example 7.03.063.] | 60 nM |
| Cc1nc2c(o1)CN(C(=O)Cn1nc(-c3ccc(F)c(C)c3)nc1-c1ccccc1)CC2 [Example 7.03.064.] | 86 nM |
| Cc1cc(-c2nc(-c3ccccc3)n(CC(=O)N3CCc4nc(N)sc4CC3)n2)ccc1F [Example 7.03.065.] | 95 nM |
| Cc1nc2c(s1)CN(C(=O)Cn1nc(-c3ccc(F)c(C)c3)nc1-c1ccccc1)C2 [Example 7.03.066.] | 71 nM |
| COc1cc(-c2nc(-c3ccc(F)cc3)nn2CC(=O)N2CCc3nc(C)sc3CC2)ccc1F [Example 7.03.069.] | 574 nM |
| CCCc1nc(-c2ccc(F)c(C)c2)nn1CC(=O)N1CCc2nc(C)sc2CC1 [Example 7.03.070.] | 457 nM |
| CCCc1nc(-c2ccc(F)c(C)c2)nn1CC(=O)N1Cc2nc(C)sc2C1 [Example 7.03.071.] | 1170 nM |
| CCCc1nc(-c2ccc(F)c(C)c2)nn1CC(=O)N1CCc2nc(N)sc2CC1 [Example 7.03.072.] | 407 nM |
| Cc1cc(-c2nc(C(C)C)n(CC(=O)N3CCc4nc(N)sc4CC3)n2)ccc1F [Example 7.03.073.] | 1170 nM |
| Cc1nc2c(s1)CCN(C(=O)Cn1nc(-c3ccc(F)c(C)c3)nc1C(C)C)CC2 [Example 7.03.074.] | 321 nM |
| Cc1cc(-c2nc(C(C)C)n(CC(=O)N3CC=C(c4ccccn4)CC3)n2)ccc1F [Example 7.03.075.] | 1090 nM |
| Cc1cc(-c2nc(C(C)C)n(CC(=O)N3CC=C(c4ncccn4)CC3)n2)ccc1F [Example 7.03.076.] | 1710 nM |
| COc1cc(C2=CCN(C(=O)Cn3nc(-c4ccc(F)c(C)c4)nc3C(C)C)CC2)ncn1 [Example 7.03.077.] | 500 nM |
| Cc1ccnc(C2=CCN(C(=O)Cn3nc(-c4ccc(F)c(C)c4)nc3C(C)C)CC2)c1 [Example 7.03.078.] | 803 nM |
| COc1ccnc(C2=CCN(C(=O)Cn3nc(-c4ccc(F)c(C)c4)nc3C(C)C)CC2)c1 [Example 7.03.079.] | 545 nM |
